The target in assay [1] is SHP-2 enzyme (Met1-Leu525) (Homo sapiens (Human), UniProt Q06124). The assay is described as follows: SHP2 inhibition enzymatic assay. Format: biochemical. To be noted: 0.5 nM SHP-2 activated by 500 nM IRS1 peptide, 75 μM DiFMUP substrate; read-out: SHP2wt-IC50. A digest of the protocol:
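Compounds were preincubated 30 min with 0.5 nM SHP-2 (Met1-Leu525) plus 500 nM IRS1 activating peptide (pH 7.2 HEPES, 5 mM DTT), then 75 μM DiFMUP substrate reacted 30 min at room temperature. After bpV quench, DiFMUP fluorescence gave % inhibition; four-parameter logistic fit yielded IC50.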

Assay [2] has as its system ERK phosphorylation in KYSE-520 cells. In words: Phospho-ERK cellular assay. It counts as cell-based. As to conditions: Homo sapiens, KYSE-520, 2 h, KYSE-520 cells, 2 h at 37° C., phospho-ERK1/2 (Thr202/Tyr204) TR-FRET; read-out: PERK IC50. An outline of the steps:
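TR-FRET read-out of ERK1/2 Thr202/Tyr204 phosphorylation was taken after overnight antibody incubation at room temperature. Before that, KYSE-520 cells were treated 2 h at 37 °C with compound dilutions and lysed 30 min. Percent inhibition relative to vehicle and cell-free wells was fitted four-parametrically to give IC50.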
For orientation: Time-resolved FRET reads energy transfer from a long-lived donor to a nearby acceptor.

Chain of SHP-2 enzyme (Met1-Leu525) (Q06124 1-525): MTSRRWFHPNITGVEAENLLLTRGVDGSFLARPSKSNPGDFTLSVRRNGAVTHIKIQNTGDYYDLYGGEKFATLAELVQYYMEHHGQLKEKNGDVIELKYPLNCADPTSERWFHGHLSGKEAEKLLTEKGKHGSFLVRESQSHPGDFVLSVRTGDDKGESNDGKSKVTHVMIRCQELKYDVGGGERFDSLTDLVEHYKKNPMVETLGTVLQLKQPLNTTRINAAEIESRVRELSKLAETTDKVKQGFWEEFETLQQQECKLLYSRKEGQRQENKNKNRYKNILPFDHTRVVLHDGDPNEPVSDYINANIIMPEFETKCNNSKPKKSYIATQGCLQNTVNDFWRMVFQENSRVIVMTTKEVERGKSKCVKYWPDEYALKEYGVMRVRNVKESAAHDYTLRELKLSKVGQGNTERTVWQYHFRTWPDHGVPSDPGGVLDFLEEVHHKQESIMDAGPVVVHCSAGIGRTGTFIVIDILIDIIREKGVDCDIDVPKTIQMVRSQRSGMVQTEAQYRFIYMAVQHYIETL

The term IC50 denotes the concentration that inhibits the measured activity by half. As for `Cn1ccc(-c2nccc(-c3n[nH]c4nc(N5CC[C@@H]6[C@H](C5)[C@@]6(CN)c5ccccc5F)cnc34)c2Cl)n1` [Example 265, ((1S,6R,7R)-3-(3-(3-chloro-2-(1-methyl-1H-pyrazol-3-yl)pyridin-4-yl)-1H-pyrazolo[3,4-b]pyrazin-6-yl)-7-(2-fluorophenyl)-3-azabicyclo[4.1.0]heptan-7-yl)methanamine], the values for the IC50 in assay [1] and in assay [2] were < 500 nM and < 1000 nM, respectively.

Take `Cn1ccc(C2(CN)C3CCN(c4cnc5c(-c6cccc(Cl)c6Cl)n[nH]c5n4)CC32)n1` (stereo not drawn) [Example 98, (3-(3-(2,3-dichlorophenyl)-1H-pyrazolo[3,4-b]pyrazin-6-yl)-7-(1-methyl-1H-pyrazol-3-yl)-3-azabicyclo[4.1.0]heptan-7-yl)methanamine]: the figures for the IC50 in assay [1] and in assay [2] were < 500 nM and < 1000 nM, respectively.

Turning to `Cn1c(=O)n(C)c2c(Cl)c(-c3n[nH]c4nc(N5CC[C@@H]6[C@H](C5)[C@@]6(CN)c5ccccc5F)cnc34)ccc21` [Example 317, 5-(6-((1S,6R,7R)-7-(aminomethyl)-7-(2-fluorophenyl)-3-azabicyclo[4.1.0]heptan-3-yl)-1H-pyrazolo[3,4-b]pyrazin-3-yl)-4-chloro-1,3-dimethyl-1,3-dihydro-2H-benzo[d]imidazol-2-one], the IC50 in assay [1] is < 500 nM; in assay [2], < 1000 nM.

In the case of `Cc1nccc(-c2n[nH]c3nc(N4CC[C@@H]5[C@H](C4)[C@@]5(CN)c4ccccc4F)cnc23)c1F` [Example 195, ((1S,6R,7R)-3-(3-(3-fluoro-2-methylpyridin-4-yl)-1H-pyrazolo[3,4-b]pyrazin-6-yl)-7-(2-fluorophenyl)-3-azabicyclo[4.1.0]heptan-7-yl)methanamine], the IC50 in assay [1] was < 500 nM; in assay [2] it was < 1000 nM.

On to `Cc1cc([C@@]2(CN)[C@@H]3CCN(c4cnc5c(-c6ccc(C(C)O)c7ncccc67)n[nH]c5n4)C[C@@H]32)no1` (stereo partly drawn) [Example 134, 1-(5-(6-((1S,6R,7S)-7-(aminomethyl)-7-(5-methylisoxazol-3-yl)-3-azabicyclo[4.1.0]heptan-3-yl)-1H-pyrazolo[3,4-b]pyrazin-3-yl)quinolin-8-yl)ethan-1-ol], for which the results for the IC50 in assay [1] and in assay [2] were < 500 nM and < 1000 nM, respectively.

`CN(C)c1nccc(-c2n[nH]c3nc(N4CC[C@@H]5[C@H](C4)[C@@]5(CN)c4ccccc4F)cnc23)c1Cl` [Example 190, 4-(6-((1S,6R,7R)-7-(aminomethyl)-7-(2-fluorophenyl)-3-azabicyclo[4.1.0]heptan-3-yl)-1H-pyrazolo[3,4-b]pyrazin-3-yl)-3-chloro-N,N-dimethylpyridin-2-amine]: the IC50 in assay [1] is < 500 nM; in assay [2], < 1000 nM.

As for `Cc1csc([C@@]2(CN)[C@@H]3CCN(c4cnc5c(-c6ccc7nn(C)c(Cl)c7c6Cl)n[nH]c5n4)C[C@@H]32)n1` [Example 445, ((1S,6R,7S)-3-(3-(3,4-dichloro-2-methyl-2H-indazol-5-yl)-1H-pyrazolo[3,4-b]pyrazin-6-yl)-7-(4-methylthiazol-2-yl)-3-azabicyclo[4.1.0]heptan-7-yl)methanamine], the IC50 in assay [1] is < 500 nM; in assay [2], < 1000 nM.

Take `Cc1csc([C@@]2(CN)[C@@H]3CN(c4cnc(Sc5ccn6cc(C(=O)N(C)C)nc6c5Cl)cn4)C[C@@H]32)n1` [Example 447, 7-((5-((1R,5S,6r)-6-(aminomethyl)-6-(4-methylthiazol-2-yl)-3-azabicyclo[3.1.0]hexan-3-yl)pyrazin-2-yl)thio)-8-chloro-N,N-dimethylimidazo[1,2-a]pyridine-2-carboxamide]: the IC50 in assay [1] was < 500 nM; in assay [2], < 1000 nM.

Consider `Cn1c(=O)[nH]c2ccc(-c3n[nH]c4nc(N5CC[C@@H]6[C@H](C5)[C@@]6(CN)c5ccccc5F)cnc34)cc21` [Example 320, 6-(6-((1S,6R,7R)-7-(aminomethyl)-7-(2-fluorophenyl)-3-azabicyclo[4.1.0]heptan-3-yl)-1H-pyrazolo[3,4-b]pyrazin-3-yl)-1-methyl-1,3-dihydro-2H-benzo[d]imidazol-2-one], for which the IC50 is < 500 nM in assay [1] and < 1000 nM in assay [2].

The record behind these values is patent US20240109900A1, “AZABICYCLIC SHP2 INHIBITORS” (IRBM S.P.A., priority 2021, published 2024).
